Laboratory results reported in the supplement of paper PMC10307832.

How the values were obtained:
Test in all cases: relative viability (nuclei count vs DMSO), 5 days (fraction); higher = more cells survive
Dovitinib + Bortezomib = compound: CN1CCN(c2ccc3nc(-c4c(N)c5c(F)cccc5[nH]c4=O)[nH]c3c2)CC1 [Dovitinib] + CC(C)C[C@H](NC(=O)[C@H](Cc1ccccc1)NC(=O)c1cnccn1)B(O)O [Bortezomib] (partner 0.002 µM)
Outline: (§1)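 Medians of duplicate plates are given as relative viability. That measure is the nuclei count in treated wells divided by the count in vehicle wells. Counts were taken on 4× images of lung cancer cell lines in 1536-well plates, 5 days after pin-tool dosing the day after seeding with one drug alone or a fixed anchor-drug dose plus five library-drug doses (not always all listed) in √10 steps.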

Dovitinib + Trametinib = compound: CN1CCN(c2ccc3nc(-c4c(N)c5c(F)cccc5[nH]c4=O)[nH]c3c2)CC1 [Dovitinib] + CC(=O)Nc1cccc(-n2c(=O)n(C3CC3)c(=O)c3c(Nc4ccc(I)cc4F)n(C)c(=O)c(C)c32)c1 [Trametinib] (partner 0.02 µM)
Outline: as §1

Dovitinib + Olaparib = compound: CN1CCN(c2ccc3nc(-c4c(N)c5c(F)cccc5[nH]c4=O)[nH]c3c2)CC1 [Dovitinib] + O=C(c1cc(Cc2n[nH]c(=O)c3ccccc23)ccc1F)N1CCN(C(=O)C2CC2)CC1 [Olaparib] (partner 8 µM)
Outline: as §1

Dovitinib + Pictilisib = compound: CN1CCN(c2ccc3nc(-c4c(N)c5c(F)cccc5[nH]c4=O)[nH]c3c2)CC1 [Dovitinib] + CS(=O)(=O)N1CCN(Cc2cc3nc(-c4cccc5[nH]ncc45)nc(N4CCOCC4)c3s2)CC1 [Pictilisib] (partner 1 µM)
Outline: as §1

Row | Cell Line | relative viability (Dovitinib + Bortezomib; first compound 0.02 µM) | relative viability (Dovitinib + Bortezomib; first compound 0.06325 µM) | relative viability (Dovitinib + Bortezomib; first compound 0.2 µM) | relative viability (Dovitinib + Bortezomib; first compound 0.6325 µM) | relative viability (Dovitinib + Bortezomib; first compound 2 µM) | relative viability (Dovitinib + Trametinib; first compound 0.02 µM) | relative viability (Dovitinib + Trametinib; first compound 0.06325 µM) | relative viability (Dovitinib + Trametinib; first compound 0.2 µM) | relative viability (Dovitinib + Trametinib; first compound 0.6325 µM) | relative viability (Dovitinib + Trametinib; first compound 2 µM) | relative viability (Dovitinib + Olaparib; first compound 0.02 µM) | relative viability (Dovitinib + Olaparib; first compound 0.06325 µM) | relative viability (Dovitinib + Olaparib; first compound 0.2 µM) | relative viability (Dovitinib + Olaparib; first compound 0.6325 µM) | relative viability (Dovitinib + Olaparib; first compound 2 µM) | relative viability (Dovitinib + Pictilisib; first compound 0.02 µM) | relative viability (Dovitinib + Pictilisib; first compound 0.06325 µM) | relative viability (Dovitinib + Pictilisib; first compound 0.2 µM) | relative viability (Dovitinib + Pictilisib; first compound 0.6325 µM) | relative viability (Dovitinib + Pictilisib; first compound 2 µM)
1 | NCI-H727 | 0.937 | 0.733 | 0.92 | 0.845 | 1.27 | 0.405 | 0.401 | 0.407 | 0.416 | 0.426 | 0.584 | 0.72 | 0.719 | 0.679 | 0.674 | 0.456 | 0.379 | 0.423 | 0.427 | 0.395
2 | NCI-H838 | 0.639 | 0.699 | 0.851 | 0.76 | 0.758 | 0.514 | 0.499 | 0.487 | 0.477 | 0.543 | 0.738 | 0.733 | 0.755 | 0.745 | 0.763 | 0.458 | 0.431 | 0.499 | 0.466 | 0.503
3 | NCI-H1355 | 1.31 | 1.19 | 1.17 | 1.2 | 1.42 | 0.461 | 0.405 | 0.475 | 0.45 | 0.492 | 0.792 | 0.762 | 0.717 | 0.723 | 0.754 | 0.459 | 0.305 | 0.478 | 0.479 | 0.48
4 | NCI-H1437 | 0.471 | 0.575 | 0.493 | 0.49 | 0.523 | 0.564 | 0.475 | 0.521 | 0.519 | 0.462 | 0.623 | 0.647 | 0.612 | 0.632 | 0.655 | 0.512 | 0.537 | 0.434 | 0.494 | 0.464
5 | NCI-H1650 | 0.209 | 0.206 | 0.201 | 0.189 | 0.203 | 0.718 | 0.625 | 0.757 | 0.598 | 0.816 | 0.595 | 0.703 | 0.823 | 0.804 | 0.733 | 0.62 | 0.577 | 0.654 | 0.608 | 0.678
6 | NCI-H1651 | 0.957 | 0.961 | 1.03 | 1.02 | 0.91 | 0.852 | 0.809 | 0.816 | 0.81 | 0.857 | 0.175 | 0.187 | 0.167 | 0.191 | 0.163 | 0.577 | 0.528 | 0.598 | 0.551 | 0.5
7 | NCI-H1666 | 1 | 0.87 | 0.968 | 0.792 | 0.842 | 1.02 | 0.881 | 0.939 | 0.945 | 0.855 | 0.755 | 0.777 | 0.756 | 0.731 | 0.77 | 0.607 | 0.533 | 0.548 | 0.322 | 0.375
